ChEMBL document CHEMBL1201862, “PubChem BioAssay data set” (2004)
Activity calls are given as the source filed them.

Assays:
Vibrio harveyi [1] = test: LuxS/LuxPQ-dependent luminescence inhibition, V. harveyi – dry powder, set 2, dose response (AID 493072); assay type: functional, organism-based
Vibrio harveyi [2] = test: Quorum Sensing, LuxS, LuxPQ Measured in Microorganism System Using Plate Reader - 2035-01_Inhibitor_DoseNoFile_DryPowder_Activity. [Related pubchem assays (depositor defined):AID2106]; assay type: functional, organism-based
[3] = Intein inhibitors as potential Tuberculosis drugs, a cytotoxicity screen. [Related pubchem assays (depositor defined):AID2221, AID2223, AID434968, AID435010, AID449749, AID449750, AID489010]; assay type: functional
Leucine aminopeptidase = target: T1, Leucine aminopeptidase (Plasmodium falciparum 3D7, UniProt Q8IL11); test: P. falciparum M17LAP inhibitors, primary screen, biochemical, fluorogenic H-Leu-NHMec substrate, 1536-well (AID 1619); assay type: functional
T1 sequence (Q8IL11 whole entry): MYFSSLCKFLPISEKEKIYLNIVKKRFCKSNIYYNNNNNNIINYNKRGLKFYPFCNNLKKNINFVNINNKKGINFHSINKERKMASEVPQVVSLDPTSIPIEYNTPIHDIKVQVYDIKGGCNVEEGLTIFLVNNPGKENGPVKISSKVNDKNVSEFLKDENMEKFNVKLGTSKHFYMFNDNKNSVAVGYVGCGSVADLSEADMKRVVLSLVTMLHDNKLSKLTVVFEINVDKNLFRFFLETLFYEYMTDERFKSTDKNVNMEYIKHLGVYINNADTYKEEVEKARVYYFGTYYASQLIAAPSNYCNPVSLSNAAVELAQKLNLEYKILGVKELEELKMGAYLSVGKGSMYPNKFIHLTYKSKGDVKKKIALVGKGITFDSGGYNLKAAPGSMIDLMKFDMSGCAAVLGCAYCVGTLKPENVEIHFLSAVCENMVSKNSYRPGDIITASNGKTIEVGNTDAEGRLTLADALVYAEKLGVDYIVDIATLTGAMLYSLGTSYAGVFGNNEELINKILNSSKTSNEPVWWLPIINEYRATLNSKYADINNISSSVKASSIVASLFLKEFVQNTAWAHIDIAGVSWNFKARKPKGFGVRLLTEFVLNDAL

Protein RecA = target: T2, Protein RecA (Mycobacterium tuberculosis, UniProt P9WHJ3); test: Fluorescence Cell-Free Homogeneous Dose Retest to Identify Inhibitors of RecA-Intein Splicing Activity. [Related pubchem assays (depositor defined):AID2097, AID2223, AID489010, AID492950]; assay type: functional
T2 sequence (P9WHJ3 whole entry): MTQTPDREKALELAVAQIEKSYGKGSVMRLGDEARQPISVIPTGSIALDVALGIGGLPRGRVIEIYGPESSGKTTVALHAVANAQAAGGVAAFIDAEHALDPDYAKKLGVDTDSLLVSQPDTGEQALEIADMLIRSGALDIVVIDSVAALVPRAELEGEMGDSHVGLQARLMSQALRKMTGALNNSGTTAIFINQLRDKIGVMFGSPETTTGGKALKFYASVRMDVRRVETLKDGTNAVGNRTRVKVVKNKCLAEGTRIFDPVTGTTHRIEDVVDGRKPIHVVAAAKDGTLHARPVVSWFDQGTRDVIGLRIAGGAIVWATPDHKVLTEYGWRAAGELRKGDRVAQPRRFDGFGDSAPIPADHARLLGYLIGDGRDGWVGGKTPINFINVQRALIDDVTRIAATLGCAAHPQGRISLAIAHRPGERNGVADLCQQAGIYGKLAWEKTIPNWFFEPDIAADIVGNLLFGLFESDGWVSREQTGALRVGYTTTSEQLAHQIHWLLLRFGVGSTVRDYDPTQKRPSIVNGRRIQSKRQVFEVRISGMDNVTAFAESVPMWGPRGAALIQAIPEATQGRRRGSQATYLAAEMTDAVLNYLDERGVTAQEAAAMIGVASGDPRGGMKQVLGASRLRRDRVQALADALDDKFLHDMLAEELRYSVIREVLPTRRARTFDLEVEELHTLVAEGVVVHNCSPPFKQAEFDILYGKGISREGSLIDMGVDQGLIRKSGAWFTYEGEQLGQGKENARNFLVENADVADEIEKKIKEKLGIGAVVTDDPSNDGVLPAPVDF

[4] = target: T3, Replicative DNA helicase DnaB (Mycobacterium tuberculosis, UniProt P9WMR3); test: DnaB intein splicing inhibitors, dose response, biochemical, cell-free fluorescence (AID 449749); assay type: functional
T3 sequence (P9WMR3 whole entry): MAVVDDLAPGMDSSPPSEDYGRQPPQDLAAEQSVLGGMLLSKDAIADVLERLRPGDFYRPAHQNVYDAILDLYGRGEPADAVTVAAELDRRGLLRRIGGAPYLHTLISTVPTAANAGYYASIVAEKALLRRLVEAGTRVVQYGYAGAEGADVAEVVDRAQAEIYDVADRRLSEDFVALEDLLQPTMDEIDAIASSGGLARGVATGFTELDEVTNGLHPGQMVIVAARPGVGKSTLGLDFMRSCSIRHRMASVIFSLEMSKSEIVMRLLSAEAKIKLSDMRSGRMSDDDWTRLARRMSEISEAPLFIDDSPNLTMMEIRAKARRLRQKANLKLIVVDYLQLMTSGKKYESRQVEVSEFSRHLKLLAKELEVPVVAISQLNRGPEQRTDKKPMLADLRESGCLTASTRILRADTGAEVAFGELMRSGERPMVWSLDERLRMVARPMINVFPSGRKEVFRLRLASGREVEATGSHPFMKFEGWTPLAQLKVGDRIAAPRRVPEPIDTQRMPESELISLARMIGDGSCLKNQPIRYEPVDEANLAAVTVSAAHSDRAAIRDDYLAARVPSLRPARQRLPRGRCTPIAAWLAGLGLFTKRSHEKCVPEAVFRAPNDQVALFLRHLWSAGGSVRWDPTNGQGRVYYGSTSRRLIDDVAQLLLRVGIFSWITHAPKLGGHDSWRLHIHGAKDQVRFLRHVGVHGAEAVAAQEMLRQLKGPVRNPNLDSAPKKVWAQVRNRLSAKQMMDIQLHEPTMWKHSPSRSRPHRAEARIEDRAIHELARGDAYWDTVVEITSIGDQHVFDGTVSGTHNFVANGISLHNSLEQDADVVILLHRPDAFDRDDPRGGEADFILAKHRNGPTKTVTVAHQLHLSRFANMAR

T-cell = test: loss of vesicle association with mouse CD8+ T cells – mouse 2C CD8+ T cells, flow cytometry, dose response (AID 485284); assay type: functional
[5] = target: DNA damage-inducible transcript 3 protein (Mus musculus, UniProt P35639); assay type: functional, Cricetulus griseus
Streptokinase A = target: T4, Streptokinase A (Streptococcus pyogenes serotype M1, UniProt P10520); test: viability-normalized secreted streptokinase activity reduction – plasminogen activation absorbance, OD405, dose response (AID 1914); assay type: functional, Streptococcus pyogenes M1 GAS;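 note: secreted streptokinase activity via plasminogen activation per viability signal from cell pellet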
T4 sequence (P10520 whole entry): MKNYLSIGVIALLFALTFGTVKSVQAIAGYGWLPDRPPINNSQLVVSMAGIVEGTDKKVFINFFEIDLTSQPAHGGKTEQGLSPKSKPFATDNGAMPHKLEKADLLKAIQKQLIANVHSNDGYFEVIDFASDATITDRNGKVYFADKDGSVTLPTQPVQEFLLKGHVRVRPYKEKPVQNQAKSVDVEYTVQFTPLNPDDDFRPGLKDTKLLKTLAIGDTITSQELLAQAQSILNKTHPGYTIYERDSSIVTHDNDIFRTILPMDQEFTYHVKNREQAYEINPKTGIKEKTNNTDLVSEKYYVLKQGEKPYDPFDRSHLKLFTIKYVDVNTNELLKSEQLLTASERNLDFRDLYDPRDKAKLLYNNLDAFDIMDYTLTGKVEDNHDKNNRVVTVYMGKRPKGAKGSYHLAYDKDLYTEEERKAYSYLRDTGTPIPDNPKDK

[6] = A549 cell cytotoxicity, dose response, cytotoxicity control, plate reader, cherry-pick, antagonist series (AID 743412); assay type: functional, cell-based
Streptococcus = test: GAS UMAA2166 growth inhibition – luminescence, BacTiterGlo, counter-screen for streptokinase expression inhibitor project, dose response (AID 1915); assay type: functional, organism-based;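 note: potency for reduction of bacterial viability or growth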
[7] = test system: Streptococcus sp. 'group A'; test: Streptococcus pyogenes SK(-)GAS viability under kanamycin – luminescence, BacTiterGlo, confirmation, counter-screen for streptokinase expression inhibitor project, dose response (AID 1900); assay type: functional, organism-based
[8] = blockers of bursicon-stimulated LGR2 cAMP reporter – cell-based, HEK293, CRE-luciferase reporter, cherry pick, set 2, dose response (AID 743343); assay type: functional;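 note: transfected cells were stimulated with diluted bursicon conditioned medium after compound addition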
[9] = blockade of melanocortin 4 receptor signaling – cell-based, plate reader, cherry pick, counter-screen for LGR2 antagonist project, dose response (AID 743444); assay type: functional;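 note: transfected HEK 293 cells stimulated with alpha-MSH peptide; potency of inhibitors of the alpha-MSH evoked signal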
[10] = target: T5, Type-1 angiotensin II receptor (Homo sapiens, UniProt P30556); test: agonist activity at AGTR1 – cell-based, uHTS hits, selectivity assay for APJ receptor agonist project, dose response (AID 488865); assay type: functional;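 note: beta-arrestin recruitment to AT1 measured by enzyme fragment complementation luminescence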
T5 sequence (P30556 whole entry): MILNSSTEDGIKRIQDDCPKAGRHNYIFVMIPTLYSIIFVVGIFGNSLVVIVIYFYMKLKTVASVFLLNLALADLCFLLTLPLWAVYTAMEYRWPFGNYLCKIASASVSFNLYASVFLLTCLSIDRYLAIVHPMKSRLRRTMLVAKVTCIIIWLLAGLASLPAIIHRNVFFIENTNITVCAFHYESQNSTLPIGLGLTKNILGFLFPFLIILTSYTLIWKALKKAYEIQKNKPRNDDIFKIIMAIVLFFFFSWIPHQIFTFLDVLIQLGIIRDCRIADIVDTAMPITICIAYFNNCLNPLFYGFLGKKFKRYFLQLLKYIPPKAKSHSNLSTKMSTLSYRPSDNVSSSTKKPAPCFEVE

INS1 = test: INS-1E survival protection against cytokine death – cell-based, luminescence, retest, dose response (AID 449756); assay type: functional; conditions: Rattus norvegicus;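 note: cell death triggered by IL-1 beta plus TNF-alpha plus IFN-gamma mixture; protective hits raise ATP signal compared with cytokine alone wells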
[11] = toxicity toward HepG2 liver cells – cell-based, plate reader, cherry-pick, antagonist series, cytotoxicity control, dose response (AID 743416); assay type: functional
[12] = viability loss in HEK293 cells – cell-based, plate reader, cherry-picked samples, cytotoxicity control, dose response (AID 743446); assay type: functional
[13] = target: G-protein coupled receptor 55 (Homo sapiens, UniProt Q9Y2T6); test: SAR analysis of selective Agonists of GPR55 using an Image-Based Assay - Set 2. [Related pubchem assays (depositor defined):AID1961, AID1965]; assay type: functional
Cannabinoid receptor 1 [14] = target: T6, Cannabinoid receptor 1 (Homo sapiens, UniProt P21554); test: SAR analysis of agonists of the Cannabinoid Receptor 1 using an Image-Based Assay - Set 3. [Related pubchem assays (depositor defined):AID1961, AID1965]; assay type: functional
Cannabinoid receptor 2 [15] = target: T7, Cannabinoid receptor 2 (Homo sapiens, UniProt P34972); test: SAR analysis of agonists of the Cannabinoid Receptor 2 using an Image-Based Assay - Set 2. [Related pubchem assays (depositor defined):AID1961, AID1965]; assay type: functional
[16] = target: T8, G-protein coupled receptor 35 (Homo sapiens, UniProt Q9HC97); test: SAR analysis of Agonists of the GPR35 Receptor using an Image-Based Assay - Set 3. [Related pubchem assays (depositor defined):AID1961, AID1965]; assay type: functional
Cannabinoid receptor 1 [17] = target: T6, Cannabinoid receptor 1; test: SAR analysis of antagonists of the Cannabinoid Receptor 1 using an Image-Based Assay - Set 3. [Related pubchem assays (depositor defined):AID1961, AID1965]; assay type: functional
Cannabinoid receptor 2 [18] = target: T7, Cannabinoid receptor 2; test: SAR analysis of antagonists of the Cannabinoid Receptor 2 using an Image-Based Assay - Set 2. [Related pubchem assays (depositor defined):AID1961, AID1965]; assay type: functional
[19] = target: T8, G-protein coupled receptor 35; test: SAR analysis of Antagonists of the GPR35 Receptor using an Image-Based Assay - Set 4. [Related pubchem assays (depositor defined):[…]]; assay type: functional
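Throughout, for CC50: cells exposed to compound for 72 hours before luminescence readout.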

T7 sequence (P34972 whole entry): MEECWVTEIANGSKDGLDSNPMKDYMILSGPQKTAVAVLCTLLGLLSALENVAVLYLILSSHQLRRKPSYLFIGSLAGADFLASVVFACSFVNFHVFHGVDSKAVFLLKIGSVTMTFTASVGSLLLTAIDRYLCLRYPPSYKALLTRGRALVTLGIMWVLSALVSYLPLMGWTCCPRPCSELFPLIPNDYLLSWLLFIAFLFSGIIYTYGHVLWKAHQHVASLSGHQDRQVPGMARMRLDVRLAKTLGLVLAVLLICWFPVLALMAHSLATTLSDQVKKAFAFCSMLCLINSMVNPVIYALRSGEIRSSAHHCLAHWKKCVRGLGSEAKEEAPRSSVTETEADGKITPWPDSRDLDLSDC
T8 sequence (Q9HC97 whole entry): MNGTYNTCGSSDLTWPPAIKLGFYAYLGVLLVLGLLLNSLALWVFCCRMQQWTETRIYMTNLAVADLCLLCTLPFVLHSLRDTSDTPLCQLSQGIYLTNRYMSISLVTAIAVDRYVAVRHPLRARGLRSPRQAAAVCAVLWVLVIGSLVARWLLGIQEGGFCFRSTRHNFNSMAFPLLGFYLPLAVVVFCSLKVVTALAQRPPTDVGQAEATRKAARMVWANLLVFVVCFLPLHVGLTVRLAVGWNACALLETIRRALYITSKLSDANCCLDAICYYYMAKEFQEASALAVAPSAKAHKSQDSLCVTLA
T6 sequence (P21554 whole entry): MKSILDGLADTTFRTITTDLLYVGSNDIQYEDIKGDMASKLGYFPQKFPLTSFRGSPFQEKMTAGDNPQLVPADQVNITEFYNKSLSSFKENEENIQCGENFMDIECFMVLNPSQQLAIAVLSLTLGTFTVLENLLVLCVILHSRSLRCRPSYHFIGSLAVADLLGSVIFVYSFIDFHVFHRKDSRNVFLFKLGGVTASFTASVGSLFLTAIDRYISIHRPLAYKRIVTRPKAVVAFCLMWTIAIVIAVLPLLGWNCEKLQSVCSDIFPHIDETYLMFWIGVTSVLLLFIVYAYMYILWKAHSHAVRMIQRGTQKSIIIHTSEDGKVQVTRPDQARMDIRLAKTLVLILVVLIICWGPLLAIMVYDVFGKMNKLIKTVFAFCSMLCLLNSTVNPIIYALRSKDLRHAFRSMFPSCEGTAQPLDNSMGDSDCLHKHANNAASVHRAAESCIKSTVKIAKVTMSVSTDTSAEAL
G-protein coupled receptor 55, sequence (Q9Y2T6 whole entry): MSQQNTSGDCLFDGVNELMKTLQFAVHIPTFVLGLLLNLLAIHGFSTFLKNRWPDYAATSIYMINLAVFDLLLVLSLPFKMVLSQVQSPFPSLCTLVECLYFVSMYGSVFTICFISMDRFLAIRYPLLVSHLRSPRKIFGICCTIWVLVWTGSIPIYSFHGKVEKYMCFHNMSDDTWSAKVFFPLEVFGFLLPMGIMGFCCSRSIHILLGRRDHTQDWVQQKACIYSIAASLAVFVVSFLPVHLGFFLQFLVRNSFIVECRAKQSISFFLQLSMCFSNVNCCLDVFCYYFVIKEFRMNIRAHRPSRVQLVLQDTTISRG
DNA damage-inducible transcript 3 protein, sequence (P35639 whole entry): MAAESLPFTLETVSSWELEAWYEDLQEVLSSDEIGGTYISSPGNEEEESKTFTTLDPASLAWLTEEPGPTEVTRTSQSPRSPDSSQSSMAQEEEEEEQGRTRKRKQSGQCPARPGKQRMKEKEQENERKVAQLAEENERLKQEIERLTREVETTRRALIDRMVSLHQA

O=C1C=C/C(=C/Br)O1
active: AC50 (Vibrio harveyi [1]) 3.1 µM | AC50 (Vibrio harveyi [2]) 4.81 µM

N#CC1=C(N)Oc2[nH]nc(-c3ccccc3)c2C1c1ccsc1 (stereo not given)
active: CC50 [3] > 40 µM | IC50 (Leucine aminopeptidase) 64.5 µM | EC50 (Protein RecA) 0.731 µM | AC50 [4] 0.142 µM

CN(Cc1ccccc1)C(=O)c1ccc(NC(=O)Cc2cccc(NC(=O)C3CCCN(C(=O)C4CCC4)C3)c2)cc1 (stereo not given)
active: EC50 (T-cell) 5.41 µM

O=C(Cc1csc(Nc2nc(S)nc3ccccc23)n1)NCCCN1CCN(c2ccccc2F)CC1
10 µM: Absolute IC50 (CHOP) [5]

CCCCNc1c(-c2cccc(-c3ccc(OC)cc3)c2)nc2ccc(C)cn12
active: EC50 (Streptokinase A) 7.94 µM | AC50 [6] 28.7 µM | EC50 (Streptococcus) 13.3 µM | EC50 [7] 4.54 µM | AC50 [8] 10.7 µM | AC50 [9] 11 µM | AC50 (INS1) 7.86 µM | AC50 [11] 28.4 µM | AC50 [12] 29.6 µM
inactive: EC50 [10] > 100 µM

COc1ccc(-c2csc(NC(=O)CSc3nnc4c(C)cc5cc6c(cc5n34)OCCO6)n2)cc1
inactive: EC50 [13] > 32 µM | EC50 (Cannabinoid receptor 1 [14]) > 32 µM | EC50 (Cannabinoid receptor 2 [15]) > 32 µM | EC50 [16] > 32 µM | IC50 (Cannabinoid receptor 1 [17]) > 32 µM | IC50 (Cannabinoid receptor 2 [18]) > 32 µM | IC50 [19] > 32 µM
